Laboratory results taken from patent US8138170B2, “Immunosuppressive Ningalin compounds” (Memorial Sloan-Kettering Cancer Center, priority 2004, dated 2012).
Values joined by “and” are separate entries in the source; they are usually repeats but may differ in a detail not shown here. Equal entries are not always repeated.

Assays:
[1] = tested on: human lymphocytes; experiment: Inhibition of PHA-stimulated lymphocyte proliferation ([3H]thymidine incorporation); assay type: cell-based; conditions: PHA-stimulated human lymphocyte proliferation; read-out: Immunosuppressive Effect (IC50 in μM) [B]
Description: Phytohemagglutinin (phytostigma or “PHA”) induces proliferation of human lymphocytes.

[2] = Cytotoxicity measured by cell proliferation inhibition; assay type: cell-based
[3] = tested on: LEW kidney allografts; experiment: Orthotopic kidney transplantation in rats; assay type: in vivo, ACI rats
Procedure: Orthotopic kidney transplantation was performed in rats. In particular, the left kidney of donor was perfused through the aorta with heparinized saline (4° C.) and then harvested after the renal artery, renal vein, and ureter were cut off. End-to-end anastomosis of donor and recipient renal arteries and veins were performed using 10-0 nylon suture (Ethicon; Somerville, N.J.). The recipients' native kidneys were removed on the day of transplantation. Animals that died within three days after transplantation were excluded from the analysis (less than 5%).
The effect of N5 (administered in DMSO, 20 mg/kg, i.p. QDx7) on kidney allograft survival was examined. Although untreated ACI recipients acutely rejected LEW kidney allografts at 8.8±0.75 days, a 7-day i.p. daily treatment extended survivals to 26.50±2.12 days, which increased lifespan 200% (n=2; p<0.03).

[4] = tested on: C57BL/6 heart allografts; experiment: Heterotopic heart transplantation in mice; assay type: in vivo, Balb/c mice
Procedure: (§1) Heterotopic heart transplantation was performed in rats and mice. In brief, heart transplantation was performed by previously described modified method. Hearts harvested from donors were perfused with chilled saline and immediately transplanted to recipients under full anesthesia. Suture 10-0 in rats and 12-0 in mice (Ethicon; Somerville, N.J.) was used to perform anastomosis of aorta to aorta and pulmonary artery to vena cava. Heartbeat was evaluated daily and the day of complete cessation was considered rejection. Animals that died within three days after transplantation were excluded from the analysis (less than 5%).
Mice were also transplanted with heart allografts. In particular, untreated Balb/c (H-2^d) recipients rejected C57BL/6 (H-2^b) heart allografts at a MST of 7.8±0.84 days (n=5). Treatment with 40 mg/kg N5, QDx7, extended heart allograft survival to 13.33±2.52 days, which increased life span 71% (n=3; p<0.03).
Mice heart allografts were treated with 20 mg/kg of N3, QDx7, i.p. In particular, untreated Balb/c (H-2^d) recipients rejected C57BL/6 ([…]) heart allografts at a MST of […] days (n=5). Treatment with 20 mg/kg of N3 (i.e., one-half of dose of N5) extended heart allograft survival to 18.75±3.86 days (n=4; p<0.0005), an increase in lifespan of 140%.

[5] = tested on: carrageenan-induced paw edema; experiment: Carrageenan-induced paw edema; assay type: in vivo, B6D2F1 mice; conditions: for Pedis Area: individual mice 1-4; for Pedis Area, Mean: mean of 4 mice
Procedure: Carrageene (1%, 30 μl) was injected i.m. into the pedis of B6D2F1 mice (4 mice/group) to induced edemic inflammation at 0 hours. N3, N5 (i.p. injection) or oral administration of aspirin 500 mg/kg, or topical application of hydrocortisone cream (1%) or Lidex cream (0.05%) to the pedis skins were given at −1, 6, 12 and 24 hours. The control mice received dimethylsulfoxide (the vehicle of ningalins). The pedis areas (in mm^2) were measured at 0, 3, 6, 12, 24, 36 and 48 hours.

[6] = tested on: Lewis (LEW) heart allografts; experiment: Heterotopic heart transplantation in rats; assay type: in vivo, Rat ACI recipients
Procedure: as §1
Rat ACI (RT1*) recipients of Lewis (LEW; RT1^1) heart allografts were untreated or were treated for 7 days by daily (QDx7) i.p. injections with 20 mg/kg N5. Untreated recipients rejected heart allografts in a mean survival time (MST) of 8.40±0.55 (n=5).

With `COc1ccc(CCn2c(C(=O)N(C)C)c(-c3ccc(OC)c(OC)c3)c3c4cc(OC)c(OC)cc4oc(=O)c32)cc1OC` [Ningalin N5, 1-(3,4-Dimethoxy-phenyl)-3-[2-(3,4-dimethoxy-phenyl)-ethyl]-7,8-dimethoxy-4-oxo-3,4-dihydro-5-oxa-3-aza-cyclopenta[α]naphthalene-2-carboxylic acid dimethylamide] the IC50 [1] was 0.17 ± 0.01 µM, the IC50 [2] was 17.1 ± 4.6 µM and the “MST ± SD days (kidney allograft survival)” value ([3]; ACI recipients of LEW kidney, N5 in DMSO 20 mg/kg i.p. QDx7) was 26.50±2.12 days. The increased life span ([3]; kidney allograft, N5 20 mg/kg i.p. QDx7, vs untreated) was 200%, the “Survival days (individual animals)” value ([3]; kidney, N5 20 mg/kg, 20 mg/kg) was 26 days and 28 days and the “MST ± SD days (heart allograft survival)” value ([4]; B6 heart to Balb/c, N5 40 mg/kg QDx7, 40 mg/kg) was 13.33±2.52 days and 13.35 ± 2.52 days. The increased life span ([4]; heart allograft, N5 40 mg/kg QDx7, vs untreated) was 71%, the “Survival days (individual animals)” value ([4]; heart, N5 40 mg/kg, 40 mg/kg) was 11 days and 13 days and 16 days and the “Pedis Area” value ([5]; 0 hr, aspirin 500 mg/kg oral, N3 100 mg/kg i.p., N5 50 mg/kg i.p., hydrocortisone cream 1%, Lidex cream 0.05% topical, given at −1, 6, 12, 24 hours) was 100 mm^2. For the same compound, the “Pedis Area, Mean” value ([5]; 0 hr, doses as E35) was 100 mm^2, the “Pedis Area” value ([5]; 3 hr, doses as E35) was 137.1 mm^2 and 139.2 mm^2 and 143.9 mm^2 and 132 mm^2 and the “Pedis Area, Mean” value ([5]; 3 hr, doses as E35) was 138.1 mm^2. The “Pedis Area” value ([5]; 6 hr, doses as E35) was 138.1 mm^2 and 144.3 mm^2 and 146.9 mm^2 and 145.4 mm^2, the “Pedis Area, Mean” value ([5]; 6 hr, doses as E35) was 143.7 mm^2 and the “Pedis Area” value ([5]; 12 hr, doses as E35) was 125.7 mm^2 and 124.7 mm^2 and 140.8 mm^2 and 141.2 mm^2. For the same compound, the “Pedis Area, Mean” value ([5]; 12 hr, doses as E35) was 133.1 mm^2, the “Pedis Area” value ([5]; 24 hr, doses as E35) was 125.7 mm^2 and 161.6 mm^2 and 128.6 mm^2 and 142.3 mm^2 and the “Pedis Area, Mean” value ([5]; 24 hr, doses as E35) was 129.6 mm^2. The “Pedis Area” value ([5]; 36 hr, doses as E35) was 120 mm^2 and 118.6 mm^2 and 127.6 mm^2 and 142.3 mm^2, the “Pedis Area, Mean” value ([5]; 36 hr, doses as E35) was 127.1 mm^2 and the “Pedis Area” value ([5]; 48 hr, doses as E35) was 120 mm^2 and 117.5 mm^2 and 130.6 mm^2 and 142.3 mm^2. For the same compound, the “Pedis Area, Mean” value ([5]; 48 hr, doses as E35) was 127.6 mm^2, the “anti-inflammatory effect (FIG. 3)” value ([5]; N5 50 mg/kg i.p., N3 100 mg/kg i.p., all drugs: at 12-48 hours) was “produced an anti-inflammatory effect” and the “MST ± SD days (heart allograft survival)” value ([6]; ACI recipients of LEW heart, N5 20 mg/kg i.p. QDx7, 20 mg/kg) was 18.67±2.52 days and 18.67 ± 2.5 days. The increased life span ([6]; heart allograft, N5 20 mg/kg i.p. QDx7, vs untreated) was 122% and the “Survival days (individual animals)” value ([6]; heart, N5 20 mg/kg, 20 mg/kg) was 18 days and 19 days and 21 days.
